Data taken from PubChem BioAssay AID2647 (Sanford-Burnham Center for Chemical Genomics, 2010).

Test system: MDA-MB-435/MDR TRAIL potentiation, ATPlite luminescence, 24 h
Assay: PubChem AID 2647

CSc1nc(-c2ccc(C)cc2)nc(C(Cl)Cl)n1
cytotoxicity with TRAIL (at 10 µM (top of the series)): 84%
cytotoxicity (compound alone without TRAIL, at 10 µM, stronger effect = higher value): 1%
